Measurements reported in patent US8633243B2, “Forms of CDDO methyl ester” (priority 2007, dated 2014).
Marks after values point to notes of the source that are not given here.

What was measured:
[1] = Stress experiments (physical stability under temperature, humidity, grinding; XRPD after stress); assay type: physicochemical; details: for KF Result after stress: Karl Fischer water; for weight loss under stress: 3 days
Procedure: A solid sample was placed into a stainless steel milling rotor with a small metal ball. […] The sample was then ground at 30 Hz on a Retesh type MM220 mixermill for approximately 20 minutes. The resulting solids were isolated and analyzed.
A solid sample was placed into a stainless steel grinding jar with a grinding rod. The sample was then ground at 15 Hz on a SPEX Certiprep model 6750 cryomill for a set amount of time. The grinding jar was submerged in a bath of liquid nitrogen during the experiment. The solids were isolated and analyzed.
Solids were stressed under different temperature and/or relative humidity (RH) environments for a measured time period. Specific RH values were achieved by placing the samples inside sealed chambers containing saturated salt solutions or inside ESPEC temperature and humidity cabinets. The salt solutions were selected and prepared following an ASTM standard procedure. Samples were analyzed by XRPD immediately after removal from the stress environment. […]

[2] = Hygroscopicity (dynamic vapor sorption/desorption); assay type: physicochemical
Procedure: Moisture sorption/desorption data were collected on a VTI SGA-100 Vapor Sorption Analyzer. Sorption and desorption data were collected over a range of 5% to 95% relative humidity (RH) at 10% RH intervals under a nitrogen purge. Samples were not dried prior to analysis. Equilibrium criteria used for analysis were less than 0.010% weight change in 5 minutes, with a maximum equilibration time of 3 hours if the weight criterion was not met. Data were not corrected for the initial moisture content of the samples. Sodium chloride and polyvinypyrrolidine were used as calibration standards.

[3] = cynomolgus monkey, in vivo, po, 4.1 mg/kg
[4] = Phases 2 and 3: single oral administration of CDDO-methyl ester capsule formulations, concentrations by HPLC-MS/MS; assay type: in vivo, Cynomolgus monkeys, Macaca fascicularis; details: phases 2 and 3, PO capsule 10 mg/kg; compared with the micronized and nanocrystalline Form A formulations
Procedure: An aqueous suspension of nanocrystalline CDDO-Me was produced, starting from a sample of micronized Form A material. A Retsch® Planatory Ball Mill model PM 400, containing zirconia balls of 2 mm average size, was charged with 25 gm of micronized CDDO-Me (average particle size distribution of 6.1 uM), 5 gm of docusate sodium, 1 gm of Tween 80, and 68.3 gm of water. Grinding was initiated at approximately 400 RPM and was continued for 2 hours. A particle size distribution (PSD) determination using a laser light granulometer indicated an average PSD of 0.37 μM was obtained. To this thick suspension were added 1 gm of microcrystalline cellulose and 0.2 gm of […] gum, with brief mixing, and the suspension was stored refrigerated. […] The table below presents the quantitative composition of both formulations. […] The quantitative composition of each formulation appears below. […] Serial blood samples (approximately 1 mL) were removed from the femoral vein or artery of each animal and transferred into tubes containing K2-EDTA at each of the following time points (actual times were recorded): All samples were thoroughly mixed following collection and placed on wet ice, prior to being refrigerated at approximately 4° C. CDDO-methyl ester concentrations in blood were analysed by HPLC-MS/MS.

[5] = 25° C./75% RH, 28 d, micronized
[6] = 40° C./48% RH, 28 d, micronized
[7] = 60° C./23% RH, 28 d, micronized

| Compound | XRPD RESULT after stress [1, 5] | KF Result after stress [1, 5] [%] | XRPD RESULT after stress [1, 6] | KF Result after stress [1, 6] | XRPD RESULT after stress [1, 7] | KF Result after stress [1, 7] [%] | XRPD RESULT after stress ([1]; 80° C./P2O5, 28 d, micronized) | KF Result after stress ([1]; 80° C./P2O5, 28 d, micronized) [%] | hygroscopicity [2] | AUC, Mean [3] [µg·h/mL] | AUC, Median [3] [µg·h/mL] | AUC, Range (min-max) [3] [µg·h/mL] | also measured |
| --- | --- | --- | --- | --- | --- | --- | --- | --- | --- | --- | --- | --- | --- |
| COC(=O)[C@]12CCC(C)(C)C[C@H]1[C@H]1C(=O)C=C3[C@@]4(C)C=C(C#N)C(=O)C(C)(C)[C@@H]4CC[C@@]3(C)[C@]1(C)CC2 [FORM B PRODUCED BY ISOLATION FROM ETHYL ACETATE AND ETHANOL ] | Form B | 0.58 | Form B | 0.39% | ~50% Form A + | 0.02 | 100% Form A | 0.37 |  |  |  |  | form after stress testing (summary of Table 15) ([1]; 28 days of storage, Form A seen at 60° C. and above): formation of Form A |
| COC(=O)[C@]12CCC(C)(C)C[C@H]1[C@H]1C(=O)C=C3[C@@]4(C)C=C(C#N)C(=O)C(C)(C)[C@@H]4CC[C@@]3(C)[C@]1(C)CC2 [FORM B PRODUCED VIA EXAMPLE 11 PROCEDURE] | Form B | 0.77 | Form B | 0.00^b | Form B | 0.04 | Form B | 1.1 |  |  |  |  | XRPD RESULT after stress ([1]; 25° C./75% RH, 14 d, micronized): Form B; XRPD RESULT after stress ([1]; 80° C./P2O5, 14 d, micronized): Form B |
| COC(=O)C12CCC(C)(C)CC1C1C(=O)C=C3C4(C)C=C(C#N)C(=O)C(C)(C)C4CCC3(C)C1(C)CC2 (stereo not shown) [Form A, methyl 2-cyano-3,12-dioxoleana-1,9(11)-dien-28-oate] |  |  |  |  |  |  |  |  | not hygroscopic | 0.0404 | 0.0374 | 0.021 to 0.0604 | MB / DVS weight change ([2]; 5% to 95% RH sorption/desorption): Negligible weight change throughout experiment; Post MB XRPD ([2]; material after DVS experiment): Form A; weight loss under stress ([1]; 25° C./60% RH): 3 days: 1.5% loss; XRPD RESULT after stress ([1]; 25° C./60% RH, 7 days): remained Form A; weight loss under stress ([1]; 40° C./75% RH): 3 days: 1.4% loss; XRPD RESULT after stress ([1]; 40° C./75% RH, 7 days): remained Form A; XRPD RESULT after stress ([1]; 20 min grind, dry (ball mill)): remained Form A; XRPD RESULT after stress ([1]; 20 min wet grind, water (ball mill)): remained Form A |
| COC(=O)C12CCC(C)(C)CC1C1C(=O)C=C3C4(C)C=C(C#N)C(=O)C(C)(C)C4CCC3(C)C1(C)CC2 (stereo not shown) [Form B, methyl 2-cyano-3,12-dioxoleana-1,9(11)-dien-28-oate] |  |  |  |  |  |  |  |  | not hygroscopic | 0.1772 | 0.175 | 0.158 to 0.228 | bioavailability, comparison of formulations [4]: significantly better bioavailability; XRPD RESULT after stress ([1]; 22° C./97% RH, 7 days): remained Form B; XRPD RESULT after stress ([1]; 40° C./75% RH, 8 days): remained Form B; XRPD RESULT after stress ([1]; 80° C./0% RH, ~24 hours): remained Form B; XRPD RESULT after stress ([1]; 195° C., 5 minutes, ambient RH (74% RH)): remained Form B; XRPD RESULT after stress ([1]; 200° C., 60 minutes, ambient RH (74% RH), min = minor): Form A plus minor Form B; form after cryogrinding ([1]; cryogrinding 1 hour): stable and does not change Form; % Form B over Form A (AUC), Mean [3]: 439%; % Form B over Form A (AUC), Median [3]: 523%; % Form B over Form A (AUC), Range (min-max) [3]: 262-723%; median exposure greater than the equivalent dose of Form A [3]: approximately 520% |
